Results reported in PubChem BioAssay (NCI).
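Protocol summary: plate cells (96-well), add compound at 5 concentrations, incubate 48 h, interpolate endpoints linearly. GI50 marks 50% less growth. TGI marks complete inhibition of growth.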

How the values were obtained:
Experiment in all cases: NCI tumour cell line growth inhibition, 48 h
[1] = system: DU-145 prostate
[2] = system: NCI-H460 lung
[3] = system: IGROV1 ovarian
[4] = system: HOP-62 NSCLC
[5] = system: EKVX NSCLC
[6] = system: SF-295 CNS
[7] = system: SK-OV-3 ovarian
[8] = system: HCT-116 colon
[9] = system: MDA-MB-435
[10] = system: SR leukemia
[11] = system: OVCAR-5 ovarian
[12] = system: A549 NSCLC
[13] = system: MCF7 breast
[14] = system: HS 578T breast
[15] = system: PC-3 prostate
[16] = system: OVCAR-3 ovarian
[17] = system: K-562 leukemia
[18] = system: NCI-H226 lung
[19] = system: OVCAR-4 ovarian
[20] = system: MDA-MB-231 breast
[21] = system: 786-0 renal
[22] = system: U251 CNS
[23] = system: CAKI-1 renal
[24] = system: UO-31 renal
[25] = system: HCT-15 colon
[26] = system: NCI-H522 lung
[27] = system: SNB-75 CNS

## NC(=O)c1cc(-c2ccc3ncnc(N4CCc5cc(F)c(Cl)cc54)c3c2)cnc1N
[1]
  GI50: 1790 nM
  TGI: 27.4 µM
[2]
  GI50: 1300 nM
  TGI: 3.96 µM
[3]
  GI50: 279 nM
  TGI: 1620 nM
[4]
  GI50: 1370 nM
  TGI: 7.22 µM
[5]
  GI50: 806 nM
  TGI: 15.3 µM
[6]
  GI50: 1470 nM
  TGI: 4.26 µM
[7]
  GI50: 1090 nM
  TGI: 4.18 µM
[8]
  GI50: 1220 nM
  TGI: 2810 nM
[9]
  GI50: 2300 nM
  TGI: > 100 µM
[10]
  GI50: 1870 nM
  TGI: 16.2 µM
[11]
  GI50: 1820 nM
  TGI: 47.9 µM
[12]
  GI50: 1050 nM
  TGI: 13.4 µM
[13]
  GI50: 317 nM
  TGI: 2150 nM
[14]
  GI50: 839 nM
  TGI: 7.65 µM
[15]
  GI50: 976 nM
  TGI: 5.27 µM
[16]
  GI50: 1670 nM
  TGI: 10 µM
[17]
  GI50: 3.35 µM
  TGI: > 100 µM
[18]
  GI50: 3.04 µM
  TGI: 33.1 µM
[19]
  GI50: 1280 nM
  TGI: 2950 nM
[20]
  GI50: 2020 nM
  TGI: 16.2 µM
[21]
  GI50: 1190 nM
  TGI: 10.4 µM
[22]
  GI50: 2440 nM
  TGI: 18.8 µM
[23]
  GI50: 529 nM
  TGI: 17 µM
[24]
  GI50: 311 nM
  TGI: 10.6 µM
[25]
  GI50: 2020 nM
  TGI: > 100 µM
[26]
  GI50: 1550 nM
  TGI: 4.72 µM
[27]
  GI50: 524 nM
  TGI: 5.8 µM
